The values below come from patent publication US20080299602A1, “Methods of Employing Vascular Leakage to Diagnose a Capillary Leak Disorder” (priority 2007, published 2008).

The subject of this experiment is omental vessels of the rat. The experiment can be described thus: Vascular leakage after intravenous bolus of marinobufagenin (FIG. 1), fluorescein-tagged albumin videomicroscopy. It is filed as in vivo. As to conditions: bolus of 200 nM marinobufagenin injected intravenously, time increments vs control (Con). The method, then: FIG. 1 illustrates increasing vascular leakage at time increments from 5 seconds to 50 seconds with Con being the control group.
A bolus of 200 nM marinobufagenin was injected intravenously.
In the experimental procedure, single venules were visualized by way of a videomicroscopic technique, which permits viewing blood flow directly. The rats were injected with albumin that had been tagged with fluorescein dye. The distribution of the albumin in the omental vessels of the rat was then observed with a computer being employed to repeatedly measure the dye in the blood vessel and in the interstitium next to the blood vessel, as well as a remote site, which would serve as the control.

Molecules are shown by their SMILES.

`C[C@]12CC[C@H](O)C[C@@]1(O)CC[C@@H]1[C@@H]2CC[C@]2(C)[C@@H](c3ccc(=O)oc3)C[C@H]3O[C@]132` [marinobufagenin]: the “vascular leakage (dye monitored within the extravascular space)” value is “progressive, large leakage”.
